Values quoted from earlier work in US20240230688A1, “METHOD FOR DETERMINING PERSONALIZED OMEGA-3 DOSE” (SOCIETE DES PRODUITS NESTLE S.A., priority 2021, published 2024).

Test system: pregnant women
Conditions: women who took supplement during pregnancy compared to those who did not

CC/C=C\C/C=C\C/C=C\C/C=C\C/C=C\C/C=C\CCC(=O)O [DHA supplement, (4Z,7Z,10Z, 13Z, 16Z, 19Z)-4,7,10,13,16, 19-Docosahexaenoic acid]
less likely to have early preterm birth: 42%
